From patent US11866416B2, “Streptococcus mutans glucosyl transferase inhibitors for dental caries therapy” (UAB Research Foundation, priority 2018, dated 2024)
Like-named read-outs stand apart in the source and are kept apart here.

Key:
S. mutans = assay: microbe, parasite or virus in culture; format: cell-based, Streptococcus mutans; settings: for IC50 / MIC50: Streptococcus mutans; for IC50: Table 7, synthesized analogs of compound 9, read-out: Growth IC50; for SI (selectivity index): Table 7, growth IC50 value divided by biofilm IC50 value; for MIC50: Table 2, >300 = no inhibition up to 300 μM, read-out: Growth Inhibition MIC50
Outline: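 Mid-exponential cultures (OD470 0.6) in THB were exposed to compound concentrations for 16 h, with growth read at OD470 and normalised to 1% DMSO control (100%). CFU/mL were also counted after 24 h at 37 °C and compared with the DMSO control.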

S. mutans Gtfs = assay: Gtf zymographic assay with SDS-PAGE; format: biochemical, Streptococcus mutans; settings: for Gtf enzyme inhibitory activity, glucan bands in zymogram / production of Gtfs, protein level on SDS-PAGE: 50 μM added to cultures; for % Inhibition of GTFs at 10 μM: S. mutans GTF zymogram assay, NI = no inhibition up to 10 μM
Procedure: A well-established zymographic assay was used to determine enzymatic activity of Gtfs (Mattos-Graner et al. (2004) J. Clin. Microbiol. 42, […]). In brief, overnight S. mutans UA159 cultures were diluted 1:100 in fresh 5 mL THB with 50 μL of selective compounds at a series of concentrations. Treated bacteria were grown to OD470 of 1.0, and spun down by centrifugation at 4° C., and culture supernatants were collected and filtered through a 0.22-μm-pore-size filter membrane to remove residual bacterial cells and dialyzed at 4° C. against 0.02 M sodium phosphate buffer (pH 6.8), with 10 μM phenylmethylsulfonyl fluoride (PMSF), followed by a second dialysis against 0.2 mM sodium phosphate containing 10 μM PMSF. After dialysis, 4 mL of samples were concentrated to 40 μL by 100K Amicon Ultra-4 centrifugal filter (Merck Millipore Ltd.). For electrophoresis and zymographic analysis, 10 μL of each concentrated culture supernatant was applied to 8% SDS-PAGE in duplicate. One gel was used for protein staining with Coomassie blue dye, while the other one was subjected to zymographic assay as described (Mattos-Graner et al. (2004) J. Clin. Microbiol. 42, […]). The resultant white opaque glucan bands were visualized against a black background.
Inhibition of the activity of Gtfs determined by zymographic assays. Well established zymographic assay was used to determine enzymatic activity of Gtfs. In brief, overnight S. mutans UA159 cultures were diluted 1:100 in fresh 5 mL THB. Bacteria were grown to OD470 of 1.0, and spun down by centrifugation at 4° C. and culture supernatants were collected and filtered through a 0.22-μm-pore-size filter membrane to remove residual bacterial cells and dialyzed at 4° C. against 0.02 M sodium phosphate buffer (pH 6.8), with 10 μM phenylmethylsulfonyl fluoride (PMSF), followed by a second dialysis against 0.2 mM sodium phosphate containing 10 μM PMSF. After dialysis, 4 mL of samples were concentrated to 40 μL by 100K Amicon Ultra-4 centrifugal filter (Merk Millipore Ltd.). For electrophoresis and zymographic analysis, 10 μL of each concentrated culture supernatant was applied to 8% SDS-PAGE in duplicate. One gel was used for protein staining with Coomassie blue dye, while the other one was subjected to zymographic assay. For zymogram analysis, following electrophoretic separation, gels were washed twice for 15 min each with renaturing buffer containing 2.5% Triton X-100. Gels were then incubated for 18 h at 37° C. with 0.2 M sodium phosphate buffer (pH 6.5) containing 0.2% dextran T70, 5% sucrose, and varying concentrations of the small molecule inhibitors. The reactions were stopped by washing gels with distilled water at 4° C. for 10 min, and digital images of the resultant white opaque glucan bands were visualized against a black background and captured using a digital camera.
Inhibition of the activity of Gtfs determined by zymographic assays. A well-established zymographic assay was used to determine enzymatic activity of Gtfs (Mattos-Graner, R. O., Napimoga, M. H., Fukushima, K., Duncan, M. J., Smith, D. J., J Clin Microbiol, 2004, 42, 4586). In brief, overnight S. mutans UA159 cultures were diluted 1:100 in fresh 5 mL THB with 50 μL of selective compounds at a series of concentrations. Treated bacteria were grown to OD470 of 1.0, and spun down by centrifugation at 4° C., and culture supernatants were collected and filtered through a 0.22-μm-pore-size filter membrane to remove residual bacterial cells and dialyzed at 4° C. against 0.02 M sodium phosphate buffer (pH 6.8), with 10 μM phenylmethylsulfonyl fluoride (PMSF), followed by a second dialysis against 0.2 mM sodium phosphate containing 10 μM PMSF. After dialysis, 4 mL of samples were concentrated to 40 μL by 100K Amicon Ultra-4 centrifugal filter (Merk Millipore Ltd.). For electrophoresis and zymographic analysis, 10 μL of each concentrated culture supernatant was applied to 8% SDS-PAGE in duplicate. […]

S. mutans biofilm = S. mutans biofilm formation and inhibition assay (96-well plates, crystal violet); format: cell-based, Streptococcus mutans; settings: for IC50: Streptococcus mutans
S. mutans colonization = assay: Sucrose-dependent Drosophila colonization model; format: in vivo; settings: chalcones; 100 μM or 50 μM
Procedure: Briefly, Gfp tagged S. mutans bacteria were infected into flies along with the treatment appropriate compound at 100 μM in a feeding-assay.
Mid-log phase THB cultures of Gfp-tagged (green fluorescent protein) S. mutans UA159 were spun down and resuspended in a solution containing 5% sucrose and 50 μM of the compound. 100 μL of resuspended cells were spotted onto a sterile filter that was placed on the surface of 5 mL of solidified 5% sucrose agar in a plastic vial. The vials were allowed to dry at room temperature for 30 minutes prior to addition of flies. Male Canton S flies (1-3 days old) were treated with antibiotics for 2 days and starved for 3 hours prior to the addition to vials supplied with S. mutans (10 flies per vial). The colonization of flies by Gfp-tagged strains were analyzed by Nikon elipse 90i microscope, equipped with an Epi-fluorescence and NIS elements AR imaging system.
The intensity of the fluorescence was measured in the guts of the flies fed with the Gfp tagged bacteria after 7 days of infection.
Cultures of Gfp-tagged (green fluorescent protein) S. mutans UA159 grown to middle log phase were spun down and re-suspended in a solution containing 5% sucrose and 50 μM of each compound. 100 μL of re-suspended cells were aliquoted onto a sterile filter that was placed on the surface of 5 mL of solidified 5% sucrose agar in a plastic vial. Upon the drying of the vials at room temperature for 30 min, the flies were introduced to the vessels. Male Canton S flies (1-3 days old) were treated with antibiotics for 2 days and starved for 3 h before the addition to vials supplied with S. mutans (10-14 flies per vial). Nikon elipse 90i microscope, equipped with an Epi-fluorescence and NIS elements AR imaging system was used to analyze the colonization of flies by Gfp-tagged strains.

GtfB catalytic domain = GtfB catalytic domain (Streptococcus mutans serotype c (strain ATCC 700610 / UA159), UniProt P08987); assay: OctetRed96 binding kinetics, GtfB; settings: 1:1 binding model
Sequence of GtfB catalytic domain (P08987 268-1074 limits assumed): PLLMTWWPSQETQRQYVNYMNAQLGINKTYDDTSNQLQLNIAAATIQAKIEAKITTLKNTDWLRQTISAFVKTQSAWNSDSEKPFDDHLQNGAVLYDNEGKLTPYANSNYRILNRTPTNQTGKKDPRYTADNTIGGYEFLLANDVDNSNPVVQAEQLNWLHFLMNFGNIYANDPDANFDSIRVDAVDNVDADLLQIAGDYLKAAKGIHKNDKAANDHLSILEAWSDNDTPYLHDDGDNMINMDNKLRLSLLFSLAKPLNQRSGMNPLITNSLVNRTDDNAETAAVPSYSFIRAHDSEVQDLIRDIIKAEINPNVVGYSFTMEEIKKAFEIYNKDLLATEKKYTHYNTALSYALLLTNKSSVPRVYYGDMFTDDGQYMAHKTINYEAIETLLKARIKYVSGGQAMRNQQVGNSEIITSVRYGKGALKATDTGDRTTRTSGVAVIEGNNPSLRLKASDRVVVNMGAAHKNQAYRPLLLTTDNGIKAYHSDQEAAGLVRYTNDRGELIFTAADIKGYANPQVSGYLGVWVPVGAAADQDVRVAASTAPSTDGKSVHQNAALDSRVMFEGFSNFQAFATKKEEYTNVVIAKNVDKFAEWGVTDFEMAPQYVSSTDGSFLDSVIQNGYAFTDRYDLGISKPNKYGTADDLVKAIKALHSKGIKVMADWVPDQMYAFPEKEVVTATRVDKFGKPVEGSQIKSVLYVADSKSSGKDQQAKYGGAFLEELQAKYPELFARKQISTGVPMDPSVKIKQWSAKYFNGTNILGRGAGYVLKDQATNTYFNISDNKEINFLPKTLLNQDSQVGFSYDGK
Description: To determine if the inhibition is attributed by the binding of the lead compound to the enzymes, the OctetRed96 system was used to characterize protein-small molecule binding kinetics. The his-tagged catalytic domains of GtfB and GtC were immobilized separately onto an anti-penta-HIS (HIS1K) biosensor which consists of high affinity, high specificity penta-his antibody pre-immobilized on a fiber optic biosensor. This sensor was then exposed to varying concentrations of #G43.
Expression and purification of GtfB and GtfC catalytic domains. The DNA fragment coding for either GtfB catalytic (residues 268 aa-1074 aa) or GtfC-catalytic (residues 295 aa-1103 aa) was PCR amplified with primer sets of GtfB-BamH1-F and GtfB-Xho1-R, GtfC-BamH1-F and GtfC-Xhol1-R respectively using S. mutans genomic DNA as a template. Each amplified fragment was cloned into pET-sumo vector respectively and transformed in Escherichia coli BL21(DE3). The recombinant strain grown to OD600=0.8 in LB medium was induced with 0.1 mM IPTG at 18° C. overnight. Cell lysates prepared form the overnight grown E. coli cells were subjected to protein purification using HiTrap™ Column (Ni^2+ affinity) followed by gel filtration experiments as described (Zhu, F. et al. Structural and functional analysis of a new subfamily of glycosyltransferases required for glycosylation of serine-rich streptococcal adhesins. The Journal of biological chemistry 286, 27048-27057, doi:10.1074/jbc.M110.208629 (2011); Zhang, H. et al. The highly conserved domain of unknown function 1792 has a distinct glycosyltransferase fold. Nature communications 5, 4339, doi:10.1038/ncomms5339 (2014)).
Octet Red analysis. Octet full kinetic binding analysis was performed for binding of #G43 to GtfB and GtfC. The rate constant, KD, was determined using the Octet® Red96 system (ForteBio, Menlo Park, Calif.). Phosphate buffer with 3.5% (w/v) DMSO was used. The proteins were captured on dip-and-read Anti-Penta-HIS (HIS1K) Biosensor. These consist of high affinity, high specificity Penta-His antibody from Qiagen pre-immobilized on a fiber optic biosensor. The binding of #G43 at 3-fold serial dilutions in phosphate buffer from 200, 66.6, 22.2, 7.4, 2.5 to 0 μM was assessed. The ForteBio Octet analysis software (ForteBio, Menlo Park, Calif.) was used to generate the sensorgram and the accuracy of the analysis.
OctetRed analysis. […] GtfC and GtfB were purified. The Octet® Red96 system (ForteBio, Menlo Park, Calif.) was used to determine the rate constant, KD. […] Sensorgrams and the accuracy of the analysis was calculated using the ForteBio OctetRed analysis software (ForteBio, Menlo Park, Calif.).

[1] = Table 7, synthesized analogs of compound 9, read-out: Biofilm IC50
[2] = read-out: S. mutans biofilm IC50
[3] = Table 1, >500 = no inhibition up to 500 μM, read-out: Biofilm Inhibition IC50
[4] = Table 2, read-out: Biofilm Inhibition IC50
[5] = Table 5, >500 = no inhibition up to 500 μM, read-out: Biofilm Inhibition IC50

SMILES | IC50 (S. mutans) [µM] | SI (selectivity index) (S. mutans) | Gtf enzyme inhibitory activity, glucan bands in zymogram (S. mutans Gtfs) | production of Gtfs, protein level on SDS-PAGE (S. mutans Gtfs) | melting point [°C] | IC50 (S. mutans biofilm; [1]) [µM] | MIC50 (S. mutans) [µM] | % Inhibition of GTFs at 10 μM (S. mutans Gtfs) [%] | IC50 (S. mutans biofilm; [3]) [µM] | IC50 (S. mutans biofilm; [4]) [µM] | IC50 (S. mutans biofilm; [5]) [µM] | other results
O=C(/C=C\c1ccc(O)cc1O)c1ccc(O)cc1 [Compound 21b, (Z)-3-(2,4-Dihydroxyphenyl)-1-(4-hydroxyphenyl)-2-propen-1-one] | 782 ± 96 | 10.1 | exhibit the best inhibitory effects | showed an inhibitory effect on the production of Gtfs | 185 to 187 | 77 ± 8 | – | – | – | – | – | –
O=C(/C=C/c1ccc(O)cc1O)c1ccc(O)cc1 [Compound 18b, (E)-3-(2,4-Dihydroxyphenyl)-1-(4-hydroxyphenyl)-2-propen-1-one] | 1060 ± 118 | 6.6 | did not exhibit a drastic effect | showed an inhibitory effect on the production of Gtfs | 185 to 188 | 162 ± 21 | – | – | – | – | – | –
O=C(/C=C\c1ccc(O)cc1O)c1cccc(O)c1 [Compound 9b, (Z)-3-(2,4-Dihydroxyphenyl)-1-(3-hydroxyphenyl)-2-propen-1-one] | 468 ± 16 | 10.6 | exhibit the best inhibitory effects | showed an inhibitory effect on the production of Gtfs | 164 to 167 | 44 ± 5 | – | – | – | – | – | selectivity (index / fold) for biofilm over growth (S. mutans): about 10; fluorescence of Gfp tagged S. mutans in fly guts after 7 days (S. mutans colonization): marked reduction in fluorescence; IC50 (S. mutans biofilm; [2]): 44 µM
O=C(/C=C/c1ccc(O)cc1O)c1cccc(O)c1 [Compound 9a, (E)-3-(2,4-Dihydroxyphenyl)-1-(3-hydroxyphenyl)-2-propen-1-one] | 639 ± 25 | 9.39 | did not exhibit a drastic effect | – | 73 to 75 | 68 ± 3 | – | – | – | – | – | selectivity (index / fold) for biofilm over growth (S. mutans): about 10; fluorescence of Gfp tagged S. mutans in fly guts after 7 days (S. mutans colonization): marked reduction in fluorescence; IC50 (S. mutans biofilm; [2]): 68 µM
O=C(Nc1ccccc1)c1cc2cc([N+](=O)[O-])ccc2s1 [#G43-D] | – | – | – | – | – | – | – | – | – | – | – | Kd (GtfB catalytic domain): 68 µM; glucan bands in zymographic assay (S. mutans Gtfs; 50 μM, Gtfs from S. mutans UA159 supernatants): significantly reduced the ability to inhibit the glucan production; inhibition of S. mutans biofilms, biofilm assay and fluorescence microscopy (S. mutans biofilm; concentrations up to 200 μM): did not inhibit
COC(=O)c1ccc(NC(=O)c2cc3cc([N+](=O)[O-])ccc3s2)cc1 [Compound 3O] | – | – | – | – | – | – | > 300 | 54.8 | 9.6 | 9.6 | 9.6 | –
NC(=O)c1ccccc1NC(=O)c1cc2cc([N+](=O)[O-])ccc2s1 [Compound 3A] | – | – | – | – | – | – | > 300 | 30.3 | 16.7 | 16.7 | 16.7 | –
NC(=O)c1ccccc1NC(=O)c1cnc2ccccc2c1 [Compound 3I] | – | – | – | – | – | – | > 300 | 36.6 | 15.3 | 15.3 | 15.3 | –
